The results in this text go back to paper PMC8776063, “Aurora Kinase A Is Involved in Controlling the Localization of Aquaporin-2 in Renal Principal Cells” (International Journal of Molecular Sciences, 2022).

Read-outs that look alike come from different tables or passages of the source.

Experiment [1] deals with T1, AURKA (Homo sapiens, UniProt O14965).
T1 construct: purchased in-house thermal shift (DSF) kinase panel (SGC Frankfurt); Promega NanoBRET for AURKA/B/C
T1 sequence (O14965 122-403): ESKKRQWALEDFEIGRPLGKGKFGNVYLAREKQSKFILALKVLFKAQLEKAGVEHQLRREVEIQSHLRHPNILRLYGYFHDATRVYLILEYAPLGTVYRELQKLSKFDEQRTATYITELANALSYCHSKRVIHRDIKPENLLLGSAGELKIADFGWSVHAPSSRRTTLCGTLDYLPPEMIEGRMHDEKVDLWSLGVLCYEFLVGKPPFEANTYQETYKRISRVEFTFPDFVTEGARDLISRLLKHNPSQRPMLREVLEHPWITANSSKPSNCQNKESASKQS
Nature of the experiment: Thermal shift assay. The class given is binding. Particulars: read-out: ΔTm AURKA.

Experiment [2] has as its target T2, PIM1 (Homo sapiens, UniProt P11309).
T2 construct: purchased in-house thermal shift (DSF) kinase panel (SGC Frankfurt); Promega NanoBRET for AURKA/B/C
Nature of the experiment: Thermal shift assay. The class given is binding. Particulars: read-out: ΔTm PIM1.

Experiment [3] addresses T3, CSNK2A1 (Homo sapiens, UniProt P68400).
T3 construct: purchased in-house thermal shift (DSF) kinase panel (SGC Frankfurt); Promega NanoBRET for AURKA/B/C
Briefly: Thermal shift assay. The class given is binding. The note with it: read-out: ΔTm CSNK2A1.

Experiment [4] concerns the target T4, BMX (Homo sapiens, UniProt P51813).
T4 construct: purchased in-house thermal shift (DSF) kinase panel (SGC Frankfurt); Promega NanoBRET for AURKA/B/C
Briefly: Thermal shift assay. The format is binding. The note with it: read-out: ΔTm BMX.

The test system of experiment [5] is MCD4 cells. Nature of the experiment: F-actin stress fiber staining (phalloidin). The class given is cell-based, mouse. The note with it: compound 30 µM, 1 h.
Experiment [6] deals with T5, CSNK1D (Homo sapiens, UniProt P48730).
T5 construct: purchased in-house thermal shift (DSF) kinase panel (SGC Frankfurt); Promega NanoBRET for AURKA/B/C
T5 sequence (P48730 1-294): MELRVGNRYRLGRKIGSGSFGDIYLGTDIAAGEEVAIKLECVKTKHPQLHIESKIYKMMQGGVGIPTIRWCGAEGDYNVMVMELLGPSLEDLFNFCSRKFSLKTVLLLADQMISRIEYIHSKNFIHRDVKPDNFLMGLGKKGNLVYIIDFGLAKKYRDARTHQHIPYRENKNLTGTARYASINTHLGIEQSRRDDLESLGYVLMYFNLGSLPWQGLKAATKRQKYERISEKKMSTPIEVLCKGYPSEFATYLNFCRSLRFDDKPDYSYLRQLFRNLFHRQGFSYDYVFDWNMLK
Nature of the experiment: Thermal shift assay. The class given is binding. Particulars: read-out: ΔTm CSNK1D.

Experiment [7] addresses T6, ULK3 (Homo sapiens, UniProt Q6PHR2).
T6 construct: purchased in-house thermal shift (DSF) kinase panel (SGC Frankfurt); Promega NanoBRET for AURKA/B/C
T6 sequence (Q6PHR2 1-277): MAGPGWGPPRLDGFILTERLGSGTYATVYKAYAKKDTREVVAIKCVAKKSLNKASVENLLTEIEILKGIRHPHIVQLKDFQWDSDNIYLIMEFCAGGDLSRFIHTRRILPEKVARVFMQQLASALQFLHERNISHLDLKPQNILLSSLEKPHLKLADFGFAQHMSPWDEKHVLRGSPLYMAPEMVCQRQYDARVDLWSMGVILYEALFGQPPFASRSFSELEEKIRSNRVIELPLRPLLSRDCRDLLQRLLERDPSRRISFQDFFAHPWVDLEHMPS
Nature of the experiment: Thermal shift assay. The format is binding. Particulars: read-out: ΔTm ULK3.

In experiment [8] the target is T7, CAMK1G (Homo sapiens, UniProt Q96NX5).
T7 construct: purchased in-house thermal shift (DSF) kinase panel (SGC Frankfurt); Promega NanoBRET for AURKA/B/C
T7 sequence (Q96NX5 23-277): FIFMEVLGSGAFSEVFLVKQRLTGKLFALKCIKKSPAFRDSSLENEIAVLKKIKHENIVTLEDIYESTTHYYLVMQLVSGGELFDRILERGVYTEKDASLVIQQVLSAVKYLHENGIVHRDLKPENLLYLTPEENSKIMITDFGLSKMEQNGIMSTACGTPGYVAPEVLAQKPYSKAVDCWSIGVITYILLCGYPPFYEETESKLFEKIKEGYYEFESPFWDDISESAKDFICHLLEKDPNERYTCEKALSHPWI
Nature of the experiment: Thermal shift assay. The class given is binding. The note with it: read-out: ΔTm CAMK1G.

For experiment [9], the target named is T8, VRK1 (Homo sapiens, UniProt Q99986).
T8 construct: purchased in-house thermal shift (DSF) kinase panel (SGC Frankfurt); Promega NanoBRET for AURKA/B/C
T8 sequence (Q99986 1-396): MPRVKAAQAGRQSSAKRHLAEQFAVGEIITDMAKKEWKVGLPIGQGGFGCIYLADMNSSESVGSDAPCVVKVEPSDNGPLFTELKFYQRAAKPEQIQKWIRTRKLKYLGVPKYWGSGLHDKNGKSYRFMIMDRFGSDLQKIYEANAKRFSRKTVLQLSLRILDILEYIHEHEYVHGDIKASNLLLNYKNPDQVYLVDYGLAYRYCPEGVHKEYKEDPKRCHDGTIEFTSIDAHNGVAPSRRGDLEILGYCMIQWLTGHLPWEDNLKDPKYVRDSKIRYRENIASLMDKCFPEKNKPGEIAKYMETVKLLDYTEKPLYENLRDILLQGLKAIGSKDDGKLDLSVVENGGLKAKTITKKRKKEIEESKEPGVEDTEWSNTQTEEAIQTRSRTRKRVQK
Nature of the experiment: Thermal shift assay. The class given is binding. Particulars: read-out: ΔTm VRK1.

Experiment [10] addresses T9, EPHA2 (Homo sapiens, UniProt P29317).
T9 construct: purchased in-house thermal shift (DSF) kinase panel (SGC Frankfurt); Promega NanoBRET for AURKA/B/C
T9 sequence (P29317 596-900): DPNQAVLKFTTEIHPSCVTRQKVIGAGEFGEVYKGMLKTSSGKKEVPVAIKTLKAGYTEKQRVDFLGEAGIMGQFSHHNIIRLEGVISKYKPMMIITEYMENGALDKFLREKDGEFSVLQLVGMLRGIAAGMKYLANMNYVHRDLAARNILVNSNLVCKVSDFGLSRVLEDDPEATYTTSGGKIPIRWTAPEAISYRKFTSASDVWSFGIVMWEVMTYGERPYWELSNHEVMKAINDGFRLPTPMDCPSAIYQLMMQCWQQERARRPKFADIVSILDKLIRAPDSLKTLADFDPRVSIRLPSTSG
Briefly: Thermal shift assay. The class given is binding. The note with it: read-out: ΔTm EPHA2.

The target in experiment [11] is T10, GRK5 (Homo sapiens, UniProt P34947).
T10 construct: purchased in-house thermal shift (DSF) kinase panel (SGC Frankfurt); Promega NanoBRET for AURKA/B/C
T10 sequence (P34947 186-514): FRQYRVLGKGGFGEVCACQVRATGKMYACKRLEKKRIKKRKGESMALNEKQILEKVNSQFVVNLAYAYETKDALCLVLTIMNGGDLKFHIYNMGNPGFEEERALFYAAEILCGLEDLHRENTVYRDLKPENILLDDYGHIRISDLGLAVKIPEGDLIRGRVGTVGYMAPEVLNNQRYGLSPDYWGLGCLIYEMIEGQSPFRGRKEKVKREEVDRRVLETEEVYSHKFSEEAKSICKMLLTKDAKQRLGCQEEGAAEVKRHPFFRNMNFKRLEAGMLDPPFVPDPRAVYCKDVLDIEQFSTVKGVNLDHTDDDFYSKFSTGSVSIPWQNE
Nature of the experiment: Thermal shift assay. The class given is binding. Particulars: read-out: ΔTm GRK5.

The target of experiment [12] is T11, GSG2 (Homo sapiens, UniProt Q8TF76).
T11 construct: purchased in-house thermal shift (DSF) kinase panel (SGC Frankfurt); Promega NanoBRET for AURKA/B/C
T11 sequence (Q8TF76 465-798): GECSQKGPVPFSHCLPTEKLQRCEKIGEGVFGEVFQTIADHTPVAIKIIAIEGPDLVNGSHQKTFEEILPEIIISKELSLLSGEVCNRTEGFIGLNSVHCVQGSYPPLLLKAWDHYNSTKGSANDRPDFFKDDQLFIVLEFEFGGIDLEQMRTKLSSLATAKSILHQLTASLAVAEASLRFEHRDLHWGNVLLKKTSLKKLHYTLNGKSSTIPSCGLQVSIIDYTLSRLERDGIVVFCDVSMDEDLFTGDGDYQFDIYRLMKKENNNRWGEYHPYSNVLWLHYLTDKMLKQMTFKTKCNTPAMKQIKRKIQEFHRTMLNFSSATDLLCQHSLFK
Nature of the experiment: Thermal shift assay. The class given is binding. The note with it: read-out: ΔTm GSG2.

T2 sequence (P11309 whole entry): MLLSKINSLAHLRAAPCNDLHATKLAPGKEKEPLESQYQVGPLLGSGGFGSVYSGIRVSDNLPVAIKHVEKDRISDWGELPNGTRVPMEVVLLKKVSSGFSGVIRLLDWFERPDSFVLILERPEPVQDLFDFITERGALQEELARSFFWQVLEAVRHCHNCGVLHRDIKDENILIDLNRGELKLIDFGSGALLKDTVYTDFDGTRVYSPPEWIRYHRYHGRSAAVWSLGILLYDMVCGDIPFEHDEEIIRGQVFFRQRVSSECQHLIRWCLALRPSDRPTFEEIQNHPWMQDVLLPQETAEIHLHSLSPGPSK
T3 sequence (P68400 1-337): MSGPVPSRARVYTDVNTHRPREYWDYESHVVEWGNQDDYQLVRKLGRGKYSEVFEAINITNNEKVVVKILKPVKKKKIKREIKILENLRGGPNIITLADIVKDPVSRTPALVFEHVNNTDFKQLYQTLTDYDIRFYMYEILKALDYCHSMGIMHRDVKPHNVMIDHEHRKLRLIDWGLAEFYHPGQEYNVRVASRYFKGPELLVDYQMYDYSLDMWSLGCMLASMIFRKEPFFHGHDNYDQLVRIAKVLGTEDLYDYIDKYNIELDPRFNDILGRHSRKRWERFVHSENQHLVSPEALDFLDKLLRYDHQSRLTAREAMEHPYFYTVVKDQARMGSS
T4 sequence (P51813 411-675): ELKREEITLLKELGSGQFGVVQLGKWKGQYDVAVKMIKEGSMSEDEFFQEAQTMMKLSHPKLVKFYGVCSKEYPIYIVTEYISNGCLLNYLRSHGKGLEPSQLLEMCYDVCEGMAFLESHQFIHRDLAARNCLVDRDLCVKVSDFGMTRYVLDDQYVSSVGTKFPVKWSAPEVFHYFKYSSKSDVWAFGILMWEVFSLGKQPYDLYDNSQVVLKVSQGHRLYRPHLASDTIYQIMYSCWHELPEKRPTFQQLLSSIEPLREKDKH

Broadly, the ΔTm is the shift of the melting midpoint relative to a reference. Turning to `CCN1CCN(C(=O)Cc2ccc(Nc3ncc(F)c(Nc4ccc(C(=O)Nc5ccccc5Cl)cc4)n3)cc2)CC1` [Aurora-A inhibitor I, reference compound], the ΔTm at 10 µM stood at 15.2 °C in [1]; 0.2 °C in experiment [2]; 1.1 °C in [3]; 2.1 °C in experiment [4]; 0.2 °C in [6]; 7.6 °C in experiment [7]. In addition, the ΔTm at 10 µM in experiment [8] came to 1.1 °C; in experiment [9] it was 0.4 °C; in [10], 1.4 °C; in experiment [11] it was 0.2 °C; in experiment [12], 0 °C. Moreover, in experiment [5], the “effect on actin stress fibers” value was “depolymerization of actin stress fibers”.

For `CCN1CCN(C(=O)Cc2ccc(Nc3ncc(F)c(Nc4ccc(C(=O)O)cc4)n3)cc2)CC1` [ERJ2-12], the ΔTm at 10 µM in experiment [1] (compound 10 µM, n = 3) worked out at 9.5 °C; in experiment [2] (compound 10 µM, n = 3), 1.1 °C; in [3] (compound 10 µM, n = 3), 1.3 °C; in experiment [4] (compound 10 µM, n = 3) it was 0.9 °C; in experiment [6] (compound 10 µM, n = 3) it was 0.2 °C; in experiment [7] (compound 10 µM, n = 3), 4.3 °C. The ΔTm at 10 µM in [8] (compound 10 µM, n = 3) stood at 0.2 °C; in experiment [9] (compound 10 µM, n = 3) it was 0.1 °C; in [10] (compound 10 µM, n = 3), 1.6 °C; in [11] (compound 10 µM, n = 3), 0.2 °C; in experiment [12] (compound 10 µM, n = 3) it was 0 °C. The “effect on actin stress fibers” value in experiment [5] is given as “resembled those of the control cells”.

For the molecule `NC(=O)Cc1ccc(Nc2ncc(F)c(Nc3ccc(C(=O)Nc4ccccc4Cl)cc3)n2)cc1` [ERJ2-06], the ΔTm at 10 µM worked out at 15.5 °C in [1] (compound 10 µM, n = 3); 0.2 °C in experiment [2] (compound 10 µM, n = 3); 1.6 °C in experiment [3] (compound 10 µM, n = 3); 2.1 °C in experiment [4] (compound 10 µM, n = 3); 0 °C in experiment [6] (compound 10 µM, n = 3); 9.4 °C in experiment [7] (compound 10 µM, n = 3). For the same molecule, the ΔTm at 10 µM in experiment [8] (compound 10 µM, n = 3) worked out at 1.2 °C; in experiment [9] (compound 10 µM, n = 3) it was 0.2 °C; in [10] (compound 10 µM, n = 3), 0.8 °C; in experiment [11] (compound 10 µM, n = 3), 0 °C; in [12] (compound 10 µM, n = 3), 0.2 °C. In addition, the “effect on actin stress fibers” value in experiment [5] is given as “Comparable effects”.

Regarding `O=C(Cc1ccc(Nc2ncc(F)c(Nc3ccc(C(=O)Nc4ccccc4Cl)cc3)n2)cc1)NCCN1CCOCC1` [ERJ2-04], the ΔTm at 10 µM was 13 °C in experiment [1] (compound 10 µM, n = 3); -0.2 °C in experiment [2] (compound 10 µM, n = 3); 1.3 °C in experiment [3] (compound 10 µM, n = 3); 1.5 °C in experiment [4] (compound 10 µM, n = 3); 0 °C in experiment [6] (compound 10 µM, n = 3); 6.2 °C in experiment [7] (compound 10 µM, n = 3). Moreover, the ΔTm at 10 µM in experiment [8] (compound 10 µM, n = 3) was 0.4 °C; in [9] (compound 10 µM, n = 3) it was 0.3 °C; in experiment [10] (compound 10 µM, n = 3), 0.3 °C; in experiment [11] (compound 10 µM, n = 3) it was 0.2 °C; in experiment [12] (compound 10 µM, n = 3), 0 °C. Further, the “effect on actin stress fibers” value in [5] is given as “Comparable effects”.

Consider `CCN1CCN(C(=O)Cc2ccc(Nc3ncc(F)c(Nc4ccc(C(=O)Nc5ccccc5)cc4)n3)cc2)CC1` [ERJ2-11], for which the ΔTm at 10 µM in experiment [1] (compound 10 µM, n = 3) was 13.8 °C; in experiment [2] (compound 10 µM, n = 3) it was 0.4 °C; in experiment [3] (compound 10 µM, n = 3), 1.1 °C; in experiment [4] (compound 10 µM, n = 3) it was 2.7 °C; in experiment [6] (compound 10 µM, n = 3), 0.2 °C; in [7] (compound 10 µM, n = 3) it was 9.8 °C. Besides, the ΔTm at 10 µM amounted to 1.2 °C in [8] (compound 10 µM, n = 3); 0.1 °C in experiment [9] (compound 10 µM, n = 3); 1.8 °C in experiment [10] (compound 10 µM, n = 3); 0.2 °C in experiment [11] (compound 10 µM, n = 3); 0 °C in experiment [12] (compound 10 µM, n = 3). Besides, the “effect on actin stress fibers” value in experiment [5] is on record as “promoted or maintained the formation of actin stress fibers”.
